Earlier results as cited in patent publication US20100209503A1, “Bitter Taste Masking Dosage Form” (priority 2005, published 2010).
Structures can show the parent of a compound that is named as a salt.

Settings: expression of General Notices of Japanese Pharmacopoeia 14th revision

SMILES	solubility in water
Cc1c(C(C)C)c(=O)n(-c2ccccc2)n1C [isopropylantipyrine]	hardly soluble (not less than 0.001 g/mL and less than 0.01 g/mL)
CN(C)C(=O)c1nc(CNC(=O)CN)n(-c2ccc(Cl)cc2C(=O)c2ccccc2Cl)n1 [rilmazafone hydrochloride]	slightly soluble (not less than 0.033 g/mL and less than 0.1 g/mL)
NC(=O)c1cccnc1 [nicotinic acid amide]	easily soluble (not less than 0.1 g/mL and less than 1.0 g/mL)
